Measurements as given in ChEMBL document CHEMBL1147423, “Synthesis and antifungal activities of phenylenedithioureas” (2004).
≈ marks a conversion by molar mass, not a printed value.

Assays:
Pseudomonas aeruginosa = test: Minimum inhibitory concentration against Pseudomonas aeruginosae ATCC 27853; type: functional
Nannizzia gypsea = test: Minimum inhibitory concentration Microsporum gypseum; type: functional
Arthroderma uncinatum = test: Minimum inhibitory concentration against Trichophyton ajelloi; type: functional
Nannizzia nana = test: Minimum inhibitory concentration against Microsporum nanum; type: functional
Staphylococcus aureus = test: Minimum inhibitory concentration Staphylococcus aureus ATCC 29213; type: functional
Candida albicans = test: Minimum inhibitory concentration against Candida albicans ATCC 10231; type: functional
Aspergillus flavus = test: Minimum inhibitory concentration against Aspergillus flavus; type: functional
Aspergillus niger = test: Minimum inhibitory concentration against Aspergillus niger; type: functional
Paraphyton cookei = test: Minimum inhibitory concentration against Microsporum cookei; type: functional
Trichophyton benhamiae = test: Minimum inhibitory concentration against Trichophyton mentagrophytes; type: functional, Arthroderma benhamiae
Enterococcus faecalis = test: Minimum inhibitory concentration against Streptococcus faecalis ATCC 29212; type: functional
Escherichia coli = test: Minimum inhibitory concentration against Escherichia coli ATCC 25853; type: functional

Compound	MIC (Pseudomonas aeruginosa)	MIC (Nannizzia gypsea)	MIC (Arthroderma uncinatum)	MIC (Nannizzia nana)	MIC (Staphylococcus aureus)	MIC (Candida albicans)	MIC (Aspergillus flavus)	MIC (Aspergillus niger)	MIC (Paraphyton cookei)	MIC (Trichophyton benhamiae)	MIC (Enterococcus faecalis)	MIC (Escherichia coli)
CCOC(=O)c1ccc(/N=C(\S)Nc2ccc(/N=C(\S)Nc3ccc(C(=O)OCC)cc3)cc2)cc1	512 µg/mL (≈ 980 µM)	> 512 µg/mL	256 µg/mL (≈ 490 µM)	128 µg/mL (≈ 245 µM)	> 512 µg/mL	> 512 µg/mL	≥ 512 µg/mL	≥ 512 µg/mL	128 µg/mL (≈ 245 µM)	512 µg/mL (≈ 980 µM)	512 µg/mL (≈ 980 µM)	> 512 µg/mL
CC(C)OC(=O)c1ccc(/N=C(\S)Nc2ccc(/N=C(/S)Nc3ccc(C(=O)OC(C)C)c(O)c3)cc2)cc1O	512 µg/mL (≈ 879 µM)	256 µg/mL (≈ 439 µM)	128 µg/mL (≈ 220 µM)	128 µg/mL (≈ 220 µM)	> 512 µg/mL	> 512 µg/mL	≥ 512 µg/mL	≥ 512 µg/mL	128 µg/mL (≈ 220 µM)	> 512 µg/mL	512 µg/mL (≈ 879 µM)	> 512 µg/mL
COC(=O)c1ccc(/N=C(\S)Nc2ccc(/N=C(/S)Nc3ccc(C(=O)OC)c(O)c3)cc2)cc1O	512 µg/mL (≈ 972 µM)	16 µg/mL (≈ 30.4 µM)	32 µg/mL (≈ 60.8 µM)	32 µg/mL (≈ 60.8 µM)	> 512 µg/mL	> 512 µg/mL	≥ 512 µg/mL	≥ 512 µg/mL	64 µg/mL (≈ 122 µM)	64 µg/mL (≈ 122 µM)	512 µg/mL (≈ 972 µM)	> 512 µg/mL
COC(=O)c1ccc(/N=C(\S)Nc2cccc(/N=C(/S)Nc3ccc(C(=O)OC)c(O)c3)c2)cc1O	> 512 µg/mL	64 µg/mL (≈ 122 µM)	128 µg/mL (≈ 243 µM)	32 µg/mL (≈ 60.8 µM)	256 µg/mL (≈ 486 µM)	512 µg/mL (≈ 972 µM)	≥ 512 µg/mL	≥ 512 µg/mL	32 µg/mL (≈ 60.8 µM)	64 µg/mL (≈ 122 µM)	> 512 µg/mL	512 µg/mL (≈ 972 µM)
CC(C)OC(=O)c1ccc(/N=C(\S)Nc2ccc(/N=C(\S)Nc3ccc(C(=O)OC(C)C)cc3)cc2)cc1	512 µg/mL (≈ 930 µM)	32 µg/mL (≈ 58.1 µM)	64 µg/mL (≈ 116 µM)	64 µg/mL (≈ 116 µM)	> 512 µg/mL	> 512 µg/mL	≥ 512 µg/mL	≥ 512 µg/mL	64 µg/mL (≈ 116 µM)	64 µg/mL (≈ 116 µM)	512 µg/mL (≈ 930 µM)	> 512 µg/mL
O=C(O)c1ccc(/N=C(\S)Nc2ccc(/N=C(/S)Nc3ccc(C(=O)O)c(O)c3)cc2)cc1O	512 µg/mL (≈ 1030 µM)	128 µg/mL (≈ 257 µM)	128 µg/mL (≈ 257 µM)	64 µg/mL (≈ 128 µM)	> 512 µg/mL	256 µg/mL (≈ 513 µM)	≥ 512 µg/mL	≥ 512 µg/mL	128 µg/mL (≈ 257 µM)	128 µg/mL (≈ 257 µM)	512 µg/mL (≈ 1030 µM)	> 512 µg/mL
COC(=O)c1ccc(/N=C(\S)Nc2ccc(/N=C(\S)Nc3ccc(C(=O)OC)cc3)cc2)cc1	512 µg/mL (≈ 1040 µM)	256 µg/mL (≈ 518 µM)	128 µg/mL (≈ 259 µM)	32 µg/mL (≈ 64.7 µM)	> 512 µg/mL	> 512 µg/mL	≥ 512 µg/mL	≥ 512 µg/mL	128 µg/mL (≈ 259 µM)	32 µg/mL (≈ 64.7 µM)	512 µg/mL (≈ 1040 µM)	> 512 µg/mL
CC(C)OC(=O)c1ccc(/N=C(\S)Nc2cccc(/N=C(/S)Nc3ccc(C(=O)OC(C)C)c(O)c3)c2)cc1O	> 512 µg/mL	32 µg/mL (≈ 54.9 µM)	32 µg/mL (≈ 54.9 µM)	32 µg/mL (≈ 54.9 µM)	256 µg/mL (≈ 439 µM)	> 512 µg/mL	≥ 512 µg/mL	≥ 512 µg/mL	32 µg/mL (≈ 54.9 µM)	16 µg/mL (≈ 27.5 µM)	> 512 µg/mL	512 µg/mL (≈ 879 µM)
CCOC(=O)c1ccc(/N=C(\S)Nc2cccc(/N=C(/S)Nc3ccc(C(=O)OCC)c(O)c3)c2)cc1O	> 512 µg/mL	32 µg/mL (≈ 57.7 µM)	32 µg/mL (≈ 57.7 µM)	32 µg/mL (≈ 57.7 µM)	256 µg/mL (≈ 462 µM)	> 512 µg/mL	≥ 512 µg/mL	≥ 512 µg/mL	64 µg/mL (≈ 115 µM)	32 µg/mL (≈ 57.7 µM)	> 512 µg/mL	512 µg/mL (≈ 923 µM)
O=C(O)c1ccc(/N=C(\S)Nc2cccc(/N=C(/S)Nc3ccc(C(=O)O)c(O)c3)c2)cc1O	> 512 µg/mL	64 µg/mL (≈ 128 µM)	32 µg/mL (≈ 64.2 µM)	64 µg/mL (≈ 128 µM)	256 µg/mL (≈ 513 µM)	> 512 µg/mL	≥ 512 µg/mL	≥ 512 µg/mL	8 µg/mL (≈ 16 µM)	32 µg/mL (≈ 64.2 µM)	> 512 µg/mL	512 µg/mL (≈ 1030 µM)
CCOC(=O)c1ccc(/N=C(\S)Nc2cccc(/N=C(/S)Nc3ccc(C(=O)OCC)cc3)c2)cc1	> 512 µg/mL	64 µg/mL (≈ 122 µM)	256 µg/mL (≈ 490 µM)	256 µg/mL (≈ 490 µM)	512 µg/mL (≈ 980 µM)	> 512 µg/mL	≥ 512 µg/mL	≥ 512 µg/mL	256 µg/mL (≈ 490 µM)	64 µg/mL (≈ 122 µM)	> 512 µg/mL	512 µg/mL (≈ 980 µM)
O=C(O)c1ccc(/N=C(\S)Nc2ccc(/N=C(\S)Nc3ccc(C(=O)O)cc3)cc2)cc1	512 µg/mL (≈ 1100 µM)	32 µg/mL (≈ 68.6 µM)	128 µg/mL (≈ 274 µM)	128 µg/mL (≈ 274 µM)	> 512 µg/mL	512 µg/mL (≈ 1100 µM)	≥ 512 µg/mL	≥ 512 µg/mL	128 µg/mL (≈ 274 µM)	32 µg/mL (≈ 68.6 µM)	512 µg/mL (≈ 1100 µM)	> 512 µg/mL
O=C(NNc1ccccc1)c1ccc(NC(=S)Nc2ccc(NC(=S)Nc3ccc(C(=O)NNc4ccccc4)cc3)cc2)cc1	512 µg/mL (≈ 792 µM)	64 µg/mL (≈ 98.9 µM)	128 µg/mL (≈ 198 µM)	8 µg/mL (≈ 12.4 µM)	128 µg/mL (≈ 198 µM)	> 512 µg/mL	≥ 512 µg/mL	≥ 512 µg/mL	16 µg/mL (≈ 24.7 µM)	16 µg/mL (≈ 24.7 µM)	512 µg/mL (≈ 792 µM)	512 µg/mL (≈ 792 µM)
COC(=O)c1ccc(/N=C(\S)Nc2cccc(/N=C(/S)Nc3ccc(C(=O)OC)cc3)c2)cc1	> 512 µg/mL	128 µg/mL (≈ 259 µM)	64 µg/mL (≈ 129 µM)	128 µg/mL (≈ 259 µM)	512 µg/mL (≈ 1040 µM)	> 512 µg/mL	≥ 512 µg/mL	≥ 512 µg/mL	64 µg/mL (≈ 129 µM)	64 µg/mL (≈ 129 µM)	> 512 µg/mL	512 µg/mL (≈ 1040 µM)
O=C(O)c1ccc(N/C(S)=N\c2ccccc2/N=C(/S)Nc2ccc(C(=O)O)cc2)cc1	512 µg/mL (≈ 1100 µM)	32 µg/mL (≈ 68.6 µM)	16 µg/mL (≈ 34.3 µM)	16 µg/mL (≈ 34.3 µM)	> 512 µg/mL	> 512 µg/mL	≥ 512 µg/mL	≥ 512 µg/mL	32 µg/mL (≈ 68.6 µM)	32 µg/mL (≈ 68.6 µM)	512 µg/mL (≈ 1100 µM)	> 512 µg/mL
O=C(O)c1ccc(N/C(S)=N\c2ccccc2/N=C(/S)Nc2ccc(C(=O)O)c(O)c2)cc1O	512 µg/mL (≈ 1030 µM)	16 µg/mL (≈ 32.1 µM)	32 µg/mL (≈ 64.2 µM)	32 µg/mL (≈ 64.2 µM)	> 512 µg/mL	512 µg/mL (≈ 1030 µM)	≥ 512 µg/mL	≥ 512 µg/mL	32 µg/mL (≈ 64.2 µM)	8 µg/mL (≈ 16 µM)	512 µg/mL (≈ 1030 µM)	> 512 µg/mL
O=C(N[C@H](CO)[C@H](O)c1ccc([N+](=O)[O-])cc1)C(Cl)Cl [CHLORAMPHENICOL]	512 µg/mL (≈ 1580 µM)	–	–	–	128 µg/mL (≈ 396 µM)	–	≥ 512 µg/mL	≥ 512 µg/mL	–	–	–	–
CC(=O)N1CCN(c2ccc(OC[C@H]3CO[C@](Cn4ccnc4)(c4ccc(Cl)cc4Cl)O3)cc2)CC1 [KETOCONAZOLE]	–	16 µg/mL (≈ 30.1 µM)	16 µg/mL (≈ 30.1 µM)	16 µg/mL (≈ 30.1 µM)	–	128 µg/mL (≈ 241 µM)	≥ 512 µg/mL	≥ 512 µg/mL	8 µg/mL (≈ 15.1 µM)	16 µg/mL (≈ 30.1 µM)	–	–
